# Tested on: MSSA
# Assay: Test A antibacterial assay, broth microdilution MIC
# Assay type: cell-based
# Details: Staphylococcus aureus, growth read after 24 to 48 hours at OD 600 nm
# Experimental: Test A. Antibacterial Assay. Antibacterial activity can be determined as per Clinical and Laboratory Standards Institute (CLSI) guidelines using a broth microdilution assay in which log-phase bacteria are grown at 37° C. in appropriate medium containing two-fold serial dilutions of a compound to yield final concentrations ranging from 256 to 0.06 μg/mL. For determination of minimal inhibitory concentration (MIC) values, bacterial growth is monitored after 24 to 48 hours by measuring optical density at 600 nm.
row,Compound,MIC
1,CCN(CC)CNC(=O)c1c(F)ccc(OCc2nc(-c3ccc(C(F)(F)F)cc3)c(Br)o2)c1F [Example 22],0.125 µg/mL
2,Cc1nc(COc2ccc(F)c(C(=O)NCN(C)Cc3ccc(C(F)(F)F)cc3)c2F)sc1-c1ccc(C(C)(C)C)cc1 [Example 35],> 64 µg/mL
3,CN1CCN(C(NC(=O)c2c(F)ccc(OCc3nc4cc(Cl)ccc4s3)c2F)c2ccccc2)CC1 (stereo not shown) [Example 38],8 µg/mL
4,Cc1csc(COc2ccc(F)c(C(=O)NCN(C)C)c2F)n1 [Example 46],8 µg/mL
5,O=C(NC(c1cccc(Br)c1)N1CCOCC1)c1c(F)ccc(OCc2nc3cc(Cl)ccc3s2)c1F (stereo not shown) [Example 30],0.5 µg/mL
6,CC(C)(C)NCNC(=O)c1c(F)ccc(OCc2nc3cc(Cl)ccc3s2)c1F [Example 40],0.5 µg/mL
7,CN(C)/C=N/C(=O)c1c(F)ccc(OCc2nc3cc(Cl)ccc3s2)c1F [Example 3],< 0.125 µg/mL
8,Cc1ccc(CN(C)CNC(=O)c2c(F)ccc(OCc3nc4cc(Cl)ccc4s3)c2F)cc1 [Example 14],0.25 µg/mL
9,C#CCN(C)CNC(=O)c1c(F)ccc(OCc2nc3cc(Cl)ccc3s2)c1F [Example 39],0.25 µg/mL
10,Cc1nc(COc2ccc(F)c(C(=O)NCN3CCC(C)CC3)c2F)sc1-c1ccc(C(C)(C)C)cc1 [Example 21],0.5 µg/mL
11,Cc1nc(COc2ccc(F)c(C(=O)NCN(C)C)c2F)sc1-c1ccncc1 [Example 1],> 64 µg/mL
12,CCN(CC)CNC(=O)c1c(F)ccc(OCc2nc3cc(Cl)ccc3o2)c1F [Example 24],8 µg/mL
13,CN1CCN(C(NC(=O)c2c(F)ccc(OCc3nc4cc(Cl)ccc4s3)c2F)c2cccc(Br)c2)CC1 (stereo not shown) [Example 31],0.5 µg/mL
14,Cc1nc(COc2ccc(F)c(C(=O)NCN3CCC(C)CC3)c2F)sc1-c1ccc(C(F)(F)F)cc1 [Example 43],2 µg/mL
15,CCN(CC)CNC(=O)c1c(F)ccc(OCc2nc3cc(Cl)ccc3s2)c1F [Example 9],0.125 µg/mL
16,Cc1ccc(CN(C)CNC(=O)c2c(F)ccc(OCc3nc(-c4ccc(C(F)(F)F)cc4)c(Br)o3)c2F)cc1 [Example 23],0.25 µg/mL
17,COc1ccc(CN(C)CNC(=O)c2c(F)ccc(OCc3nc4cc(Cl)ccc4s3)c2F)cc1 [Example 10],0.25 µg/mL
18,O=C(NC(c1ccccc1)N1CCOCC1)c1c(F)ccc(OCc2nc3cc(Cl)ccc3s2)c1F (stereo not shown) [Example 28],0.25 µg/mL
19,C/C(=N\C(=O)c1c(F)ccc(OCc2nc3cc(Cl)ccc3s2)c1F)N(C)C [Example 44],2 µg/mL
20,CN(C)/C=N/C(=O)c1c(F)ccc(O/C(=C/N(C)C)c2nc3cc(Cl)ccc3s2)c1F [Example 45],32 µg/mL
21,Cc1ccc(CN(C)CNC(=O)c2c(F)ccc(OC(C)c3nc(C)c(-c4ccc(C(C)(C)C)cc4)s3)c2F)cc1 (stereo not shown) [Example 20],1 µg/mL

row,Compound,MIC
1,O=C(NC(c1ccccc1)N1CCOCC1)c1c(F)ccc(OCc2nc3cc(Cl)cnc3s2)c1F (stereo not shown) [Example 29],1 µg/mL
2,CN(CNC(=O)c1c(F)ccc(OCc2nc3cc(Cl)ccc3s2)c1F)Cc1ccc(C(F)(F)F)cc1 [Example 12],0.5 µg/mL
3,CN(C)CNC(=O)c1c(F)ccc(OCc2nc3cc(Cl)cnc3s2)c1F [Example 6],0.25 µg/mL
4,COc1ccc(CN(C)CNC(=O)c2c(F)ccc(OCc3nc4cc(Cl)cnc4s3)c2F)cc1 [Example 11],1 µg/mL
5,CCN(CC)CNC(=O)c1c(F)ccc(OCc2nc3cc(Cl)cnc3s2)c1F [Example 16],0.5 µg/mL
6,Cc1nc(COc2ccc(F)c(C(=O)NCN(C)C)c2F)sc1-c1ccc(C(C)(C)C)cc1 [Example 34],0.125 µg/mL
7,CC1CCN(CNC(=O)c2c(F)ccc(OCc3nc4cc(Cl)cnc4s3)c2F)CC1 [Example 17],0.5 µg/mL
8,O=C(NCNCc1ccccc1)c1c(F)ccc(OCc2nc3cc(Cl)ccc3s2)c1F [Example 41],0.5 µg/mL
9,COc1ccc(CN(C)CNC(=O)c2c(F)ccc(OCc3nc4cc(Cl)ccc4o3)c2F)cc1 [Example 26],16 µg/mL
10,CN(CNC(=O)c1c(F)ccc(OCc2nc3cc(Cl)cnc3s2)c1F)Cc1ccc(C(F)(F)F)cc1 [Example 13],1 µg/mL
11,CN1CCN(C(NC(=O)c2c(F)ccc(OCc3nc4cc(Cl)ccc4s3)c2F)c2ccncc2)CC1 (stereo not shown) [Example 37],0.5 µg/mL
12,CN1CCN(C(NC(=O)c2c(F)ccc(OCc3nc4cc(Cl)cnc4s3)c2F)c2ccccc2)CC1 (stereo not shown) [Example 32],0.5 µg/mL
13,CCN(CC)CNC(=O)c1c(Cl)ccc(OCc2nc3cc(Cl)ccc3s2)c1F [Example 42],2 µg/mL
14,Cc1ccc(CN(C)CNC(=O)c2c(F)ccc(OCc3nc4cc(Cl)cnc4s3)c2F)cc1 [Example 15],0.5 µg/mL
15,CCN(CC)CNC(=O)c1c(F)ccc(OC(C)c2nc(C)c(-c3ccc(C(C)(C)C)cc3)s2)c1F (stereo not shown) [Example 19],1 µg/mL
16,CN1CCN(CNC(=O)c2c(F)ccc(OCc3nc4cc(Cl)cnc4s3)c2F)CC1 [Example 8],2 µg/mL
17,CC1CCN(CNC(=O)c2c(F)ccc(OCc3nc4cc(Cl)ccc4s3)c2F)CC1 [Example 18],0.25 µg/mL
18,O=C(NCn1ccnc1)c1c(F)ccc(OCc2nc3cc(Cl)ccc3s2)c1F [Example 2],> 64 µg/mL
19,CNCNC(=O)c1c(F)ccc(OCc2nc3cc(Cl)ccc3s2)c1F [Example 27],0.125 µg/mL
20,CN(C)CNC(=O)c1c(F)ccc(OCc2nc3cc(Cl)ccc3s2)c1F [Example 4],0.125 µg/mL
21,Cc1ccc(CN(C)CNC(=O)c2c(F)ccc(OCc3nc4cc(Cl)ccc4o3)c2F)cc1 [Example 25],16 µg/mL

# Tested on: not listed separately
# Assay: Test D formulation of test compounds (solubility in vehicles)
# Assay type: physicochemical
# Details: 10 mM citrate alone
# Experimental: Test D. Formulation of Test Compounds.
# The literature vehicle reported for formulation of 5-chloro-2-(2,4-difluoro-3-aminocarbonylphenoxy)methylpyridylthiazole for i.v. administration consists of 20% DMA, 40% polyethylene glycol and 40% saline. […] Mice that were treated 15 minutes later with a second injection consisting of 150 μl of this vehicle died. In addition, concentrations of 5-chloro-2-(2,4-difluoro-3-aminocarbonylphenoxy)methylpyridylthiazole at or above 2.2 mg/ml in this vehicle were not completely dissolved and existed as a suspension (in a 28 g mouse this would be 15.7 mg/kg). A number of other formulations with 5-chloro-2-(2,4-difluoro-3-aminocarbonylphenoxy)methyl […] were tried, such as 20% DMA, 40% proplyeneglycol in 8% Cremophor-EL. […] Because of the limited solubility and the absence of a suitable vehicle, the literature study where it was reported that a 30 mg/kg dose of 5-chloro-2-(2,4-difluoro-3-aminocarbonylphenoxy)methylpyridylthiazole was delivered to mice in a single injection could not be repeated. […] In some instances the addition of 10-30% propylene glycocol did allow for greater retention of solubility of the test compounds. Example 4 was also found to formulate well at a 2.0 mg/ml concentration in 10 mM malic acid with 20% propylene glycol and with 10 mM p-toluenesulphonate alone. Example 6 did formulate well in 10 mM citrate alone at a concentration of 2.0 mg/ml. […] The ability of mice to tolerate this vehicle did allow for multiple dosing in the assessment of Example 6 in vivo and to actually deliver higher doses of the Example 6 because of the compatibility of a predominately aqueous vehicle.
row,Compound,concentration formulated well
1,CN(C)CNC(=O)c1c(F)ccc(OCc2nc3cc(Cl)cnc3s2)c1F [Example 6],2000 µg/mL

# Same assay, conditions: 10 mM malic acid with 20% propylene glycol
row,Compound,concentration formulated well
1,CN(C)CNC(=O)c1c(F)ccc(OCc2nc3cc(Cl)ccc3s2)c1F [Example 4],2000 µg/mL

# Same assay, conditions: 10 mM p-toluenesulphonate alone
row,Compound,concentration formulated well
1,CN(C)CNC(=O)c1c(F)ccc(OCc2nc3cc(Cl)ccc3s2)c1F [Example 4],2000 µg/mL

# Same assay, conditions: 10 mM solutions of citrate, methane sulfonate, p-toluene sulphonate, phosphoric acid, and tartaric acid
row,Compound,concentration readily formulated
1,CN(C)CNC(=O)c1c(F)ccc(OCc2nc3cc(Cl)cnc3s2)c1F [Example 6],2000 µg/mL
2,CN(C)CNC(=O)c1c(F)ccc(OCc2nc3cc(Cl)ccc3s2)c1F [Example 4],2000 µg/mL

# Tested on: MSSA (S. aureus)
# Assay: Test E in vivo efficacy, murine septicemia model of staphylococcal infection
# Details: MSSA-infected mice, i.v. tail vein, four doses at 15 minute interval in 10 mM citrate; 24 h monitoring
# Experimental: Test E. In Vivo Efficacy in the Mouse Peritonitis or Mouse Septicemia Model.
# Assessment of in vivo efficacy was performed using femal Swiss Webster mice (obtained from Taconic Farms, Germantown, Pa.) employing a murine septicemia model of staphylococcal infection. For bioassays examining efficacy against MSSA, each mouse was inoculated intraperitoneally with 500 μl of an inoculum containing 1.0×10^8 CFU per ml of S. aureus. All of the in vivo efficacy studies include a negative control group of infected mice treated intravenously either with vehicle alone (6 mice) or untreated (6 mice), as well as a positive control groups of infected mice treated with 200 ul of […] of vancomycin administered intravenously (4 mice) and a second control group using 2.0 mg/ml of oxacillin (4 mice). After the mice were infected, groups of six mice are treated by tail vein injection with 300 ul of a solution containing 2.0 mg of Example 6 in 10 mM citrate. Mice received four doses Example 6 administered with a 15 minute interval. Control mice are treated with vancomycin qd, oxacillin b.i.d, or vehicle alone. […] Animals are given food and water ad libitum. Survival within each experimental group is monitored over a 24 hout time period. Monitoring of the mice began 4 hours after the start of experiment. All of the effective mice treated with Example 6 survived the infection (5/5, 100% survival). All of the oxacillin-treated (4/4) and vancomycin-treated mice (4/4) survived the infection. All of the vehicle controls died within 12 hours, with 0/6 or 0% survival. Among the infected mice that receive no treatment, only 1/6 survived (16.7% survival).
row,Compound,survival
1,CN(C)CNC(=O)c1c(F)ccc(OCc2nc3cc(Cl)cnc3s2)c1F [Example 6],100%

# Same assay, conditions: MSSA-infected mice, i.v. treatment; 24 h monitoring
row,Compound,mice surviving the infection / mice
1,"CN[C@H](CC(C)C)C(=O)N[C@H]1C(=O)N[C@@H](CC(N)=O)C(=O)N[C@H]2C(=O)N[C@H]3C(=O)N[C@H](C(=O)N[C@H](C(=O)O)c4cc(O)cc(O)c4-c4cc3ccc4O)[C@H](O)c3ccc(c(Cl)c3)Oc3cc2cc(c3O[C@@H]2O[C@H](CO)[C@@H](O)[C@H](O)[C@H]2O[C@H]2C[C@](C)(N)[C@H](O)[C@H](C)O2)Oc2ccc(cc2Cl)[C@H]1O [vancomycin, reference compound]",4/4
2,CN(C)CNC(=O)c1c(F)ccc(OCc2nc3cc(Cl)cnc3s2)c1F [Example 6],5/5
3,"Cc1onc(-c2ccccc2)c1C(=O)N[C@@H]1C(=O)N2[C@@H]1SC(C)(C)[C@@H]2C(=O)O [oxacillin, reference compound]",4/4

# Same assay, conditions: group of six mice, 300 ul i.v. of 2.0 mg solution in 10 mM citrate, four doses
row,Compound,death during the course of treatment
1,CN(C)CNC(=O)c1c(F)ccc(OCc2nc3cc(Cl)cnc3s2)c1F [Example 6],One of the mice treated with Example 6 died during the course of treatment
